Tests used:
[1] = tested on: Escherichia coli ATCC 25922; test: Colistin broth microdilution MIC with potentiator compounds (Example 1); format: cell-based; settings: E. coli ATCC 25922; MIC in the presence of 1.0% DMSO / MIC in the presence of 0.1 mM potentiator compound and 1.0% DMSO; positive = increased, negative = decreased susceptibility, 1 = no effect
[2] = tested on: Escherichia coli ATCC 9637; test: as above; format: cell-based; settings: E. coli ATCC 9637; MIC in the presence of 1.0% DMSO / MIC in the presence of 0.1 mM potentiator compound and 1.0% DMSO; positive = increased, negative = decreased susceptibility, 1 = no effect
[3] = tested on: Salmonella enterica subsp. enterica ATCC 14028; test: as above; format: cell-based; settings: S. enterica ATCC 14028; MIC in the presence of 1.0% DMSO / MIC in the presence of 0.1 mM potentiator compound and 1.0% DMSO; positive = increased, negative = decreased susceptibility, 1 = no effect
[4] = tested on: Acinetobacter baumannii ATCC 15308; test: as above; format: cell-based; settings: A. baumannii ATCC 15308; MIC in the presence of 1.0% DMSO / MIC in the presence of 0.1 mM potentiator compound and 1.0% DMSO; positive = increased, negative = decreased susceptibility, 1 = no effect
[5] = tested on: Pseudomonas aeruginosa ATCC 27853; test: as above; format: cell-based; settings: P. aeruginosa ATCC 27853; MIC in the presence of 1.0% DMSO / MIC in the presence of 0.1 mM potentiator compound and 1.0% DMSO; positive = increased, negative = decreased susceptibility, 1 = no effect
[6] = tested on: Pseudomonas aeruginosa PAO1; test: as above; format: cell-based; settings: P. aeruginosa PAO1; MIC in the presence of 1.0% DMSO / MIC in the presence of 0.1 mM potentiator compound and 1.0% DMSO; positive = increased, negative = decreased susceptibility, 1 = no effect
[7] = tested on: Stenotrophomonas maltophilia ATCC 13637; test: as above; format: cell-based; settings: S. maltophilia ATCC 13637; MIC in the presence of 1.0% DMSO / MIC in the presence of 0.1 mM potentiator compound and 1.0% DMSO; positive = increased, negative = decreased susceptibility, 1 = no effect
[8] = tested on: Enterobacter aerogenes ATCC 13048; test: as above; format: cell-based; settings: E. aerogenes ATCC 13048; MIC in the presence of 1.0% DMSO / MIC in the presence of 0.1 mM potentiator compound and 1.0% DMSO; positive = increased, negative = decreased susceptibility, 1 = no effect
[9] = tested on: A. baumannii ATCC 15308; test: Broth microdilution MIC of other antibiotics with potentiator compounds (Example 2); format: cell-based, Acinetobacter baumannii; settings: for Fold increase in bacterial susceptibility to TMP/SMX: Trimethoprim:sulfamethoxazole 1:19, MIC in 1.0% DMSO / MIC with 0.1 mM potentiator compound and 1.0% DMSO
Procedure: (§1) Following the procedure of Example 1, ciprofloxacin, amikacin, levofloxacin, tigecycline, imipenem and the combination trimethoprim/sulfamethoxasole (1:19) were tested. All were purchased from Sigma-Aldrich Co.
(§2) Minimal inhibitory concentration (MIC) of the antibiotic or the test combinations were determined by the broth microdilution method.
(§3) Antibiotic stock solutions were prepared according to CLSI recommendations and sterilizing by passage through 0.20 µm filters.
(§4) Antimicrobial susceptibility testing of these isolates was performed using the broth microdilution (BMD) method, according to CLSI guidelines.
(§5) The fold increase in bacterial susceptibility to antibiotics when combined with the potentiator compound (expressed as MIC in the presence of 1.0% DMSO / MIC in the presence of 0.1 mM of each potentiator compound and 1.0% DMSO) are shown in Table 4: […]

[10] = tested on: S. maltophilia ATCC 13637; test: as above; format: cell-based, Stenotrophomonas maltophilia
Procedure: as §1, §2, §3, §4, §5

[11] = tested on: P. aeruginosa ATCC 27853; test: as above; format: cell-based, Pseudomonas aeruginosa; settings: for Fold increase in bacterial susceptibility to antibiotic indicated: any of ciprofloxacin, amikacin, levofloxacin, tigecycline, imipenem, TMP/SMX (1:19), 0.1 mM potentiator, 1.0% DMSO, 'none' = no antibiotic potentiated
Procedure: as §1, §2, §3, §4, §5

[12] = tested on: S. maltophilia 257; test: Colistin broth microdilution MIC with potentiator compounds, resistant clinical isolates (Example 3); format: cell-based, Stenotrophomonas maltophilia; settings: MIC in the presence of 1.0% DMSO / MIC in the presence of 0.1 mM compound and 1.0% DMSO, positive = increased susceptibility, 1 = no effect
Procedure: (§6) The potentiator effect of the compound of the invention and other compounds disclosed herein was tested using colistin sulfate as antibiotic and in combination with the enhancer compounds in front of resistant clinical isolates.
(§7) Tests were performed to determine the potentiator effect of the compound of the invention and other compounds disclosed herein with multidrug-resistant S. maltophilia and A. baumannii clinical strains as shown in Table 5: TABLE 5
(§8) For this experiment the potentiator compound was added to a colistin broth microdilution assay at a final concentration of 0.1mM. MICs were determined as described in the Example 1.
(§9) Colistin minimal inhibitory concentration (MIC), expressed in µg/mL, and the fold increase in bacterial susceptibility to colistin when combined with the potentiator compound (expressed as MIC in the presence of 1.0% DMSO / MIC in the presence of 0.1 mM of each potentiator compound and 1.0% DMSO) are shown in Table 6: […]

[13] = tested on: S. maltophilia M30; test: as above; format: cell-based, Stenotrophomonas maltophilia; settings: MIC in the presence of 1.0% DMSO / MIC in the presence of 0.1 mM compound and 1.0% DMSO, positive = increased susceptibility, 1 = no effect
Procedure: as §6, §7, §8, §9

[14] = tested on: A. baumannii 6799; test: as above; format: cell-based, Acinetobacter baumannii; settings: MIC in the presence of 1.0% DMSO / MIC in the presence of 0.1 mM compound and 1.0% DMSO, positive = increased susceptibility, 1 = no effect
Procedure: as §6, §7, §8, §9

[15] = tested on: A. baumannii 6963; test: as above; format: cell-based, Acinetobacter baumannii; settings: MIC in the presence of 1.0% DMSO / MIC in the presence of 0.1 mM compound and 1.0% DMSO, positive = increased susceptibility, 1 = no effect
Procedure: as §6, §7, §8, §9

[16] = tested on: S. maltophilia 257; test: Broth microdilution MIC of other antibiotics with potentiator compounds, clinical isolates (Example 4); format: cell-based, Stenotrophomonas maltophilia; settings: any of ciprofloxacin, amikacin, levofloxacin, imipenem, TMP/SMX (1:19), 0.1 mM compound, 1.0% DMSO, 'none' = no antibiotic potentiated
Procedure: (§10) Following the procedure of Example 3, ciprofloxacin, amikacin, levofloxacin, imipenem and the combination trimethoprim/sulfamethoxasole (1:19) were tested. All were purchased from Sigma-Aldrich Co.
as §2, §3, §4
(§11) The fold increase in bacterial susceptibility to antibiotics when combined with the potentiator compound (expressed as MIC in the presence of 1.0% DMSO / MIC in the presence of 0.1 mM of each potentiator compound and 1.0% DMSO) are shown in Table 7: […]

[17] = tested on: A. baumannii 6799; test: as above; format: cell-based, Acinetobacter baumannii; settings: for Fold increase in bacterial susceptibility to TMP/SMX: Trimethoprim:sulfamethoxazole 1:19, MIC in 1.0% DMSO / MIC with 0.1 mM compound and 1.0% DMSO
Procedure: as §10, §2, §3, §4, §11

[18] = tested on: A. baumannii 6963; test: as above; format: cell-based, Acinetobacter baumannii; settings: any of ciprofloxacin, amikacin, levofloxacin, imipenem, TMP/SMX (1:19), 0.1 mM compound, 1.0% DMSO, 'none' = no antibiotic potentiated
Procedure: as §10, §2, §3, §4, §11

[19] = MIC in 1.0% DMSO / MIC with 0.1 mM potentiator compound and 1.0% DMSO
[20] = any of ciprofloxacin, amikacin, levofloxacin, tigecycline, imipenem, TMP/SMX (1:19), 0.1 mM potentiator, 1.0% DMSO, 'none' = no antibiotic potentiated

SMILES	Fold increase in bacterial susceptibility to colistin [1] [fold]	Fold increase in bacterial susceptibility to colistin [2]	Fold increase in bacterial susceptibility to colistin [3]	Fold increase in bacterial susceptibility to colistin [4]	Fold increase in bacterial susceptibility to colistin [5] [fold]	Fold increase in bacterial susceptibility to colistin [6]	Fold increase in bacterial susceptibility to colistin [7]	Fold increase in bacterial susceptibility to colistin [8] [fold]	Fold increase in bacterial susceptibility to TMP/SMX [9]	Fold increase in bacterial susceptibility to Tigecycline [10, 19]	Fold increase in bacterial susceptibility to colistin [12]	Fold increase in bacterial susceptibility to colistin [13]	Fold increase in bacterial susceptibility to colistin [14]	Fold increase in bacterial susceptibility to colistin [15]	Fold increase in bacterial susceptibility to antibiotic indicated [16]	Fold increase in bacterial susceptibility to TMP/SMX [17]	Fold increase in bacterial susceptibility to antibiotic indicated [18]	Fold increase in bacterial susceptibility to antibiotic indicated [11]	also measured
O=C(CCCN1C(=O)c2cccc3cccc(c23)C1=O)N1CCN(c2ccccc2O)CC1 [IIA, 2-[4-[4-(2-hydroxyphenyl)piperazin-1-yl]-4-oxobutyl]benzo[de]isoquinoline-1,3-dione]	1	+2 fold	+2 fold	+4 fold	-2	1 fold	+4 fold	1	Amikacin (2) TMP/SMX (2) fold	Tigecycline (2) fold	1 fold	+8 fold	+2 fold	+2 fold	none	Amikacin (2) TMP/SMX (2) fold	none		Fold increase in bacterial susceptibility to Amikacin [9, 19]: Amikacin (2) TMP/SMX (2) fold; Fold increase in bacterial susceptibility to Imipenem [11, 19]: Imipenem (2) fold; Fold increase in bacterial susceptibility to Amikacin ([17]; MIC in 1.0% DMSO / MIC with 0.1 mM compound and 1.0% DMSO): Amikacin (2) TMP/SMX (2) fold
CCOC(=O)c1cc2cc(C(=O)N3CCN(Cc4cccc(C(F)(F)F)c4)CC3)ccc2[nH]1 [IIB, ethyl 5-[4-[[3-(trifluoromethyl)phenyl]methyl]piperazine-1-carbonyl]-1 H-indole-2-carboxylate]	1	+2 fold	+4 fold	>8 fold	1	+2 fold	+4 fold	1	TMP/SMX (2) fold		+4 fold	+16 fold	+2 fold	+2 fold	none	TMP/SMX (2) fold	none	none	Fold increase in bacterial susceptibility to antibiotic indicated [10, 20]: none
O=C(NCC(=O)N1CCN(c2cccc(Cl)c2)CC1)c1cccc(NC(=O)c2cccnc2)c1 [IIC, N-[3-[[2-[4-(3-chlorophenyl)piperazin-1-yl]-2-oxoethyl]carbamoyl]-phenyl]pyridine-3-carboxamide]	1	1 fold	1 fold	+4 fold	1	1 fold	+4 fold	1			1 fold	+16 fold	+2 fold	+2 fold					
N#Cc1cccc(CN2CCC(c3cnn(Cc4cccc(C#N)c4)c3)CC2)c1 [IID, 3-[[4-[1-[(3-cyanophenyl)methyl]pyrazol-4-yl]piperidin-1-yl]methyl]-benzonitrile]	1	1 fold	1 fold	+4 fold	1	1 fold	+8 fold	1		Ciprofloxacin (2) Tigecycline (2) fold	1 fold	+16 fold	1 fold	+4 fold				none	Fold increase in bacterial susceptibility to antibiotic indicated [9, 20]: none; Fold increase in bacterial susceptibility to Ciprofloxacin [10, 19]: Ciprofloxacin (2) Tigecycline (2) fold
